Experimental data from patent publication US7947703B2, “Phenanthridinium derivatives as DNA binding agents” (University Court of the University of Glasgow, priority 2003, dated 2011).
“Also recorded” adds a separate entry of the source. Marks after values point to notes of the source that are not given here.

What was measured:
[1] = system: Cisplatin resistant cell line MCP1; experiment: growth (tetrazolium dye-based microtitration) cytotoxicity assay, MCP1; type: cell-based, human; conditions: for IC50: cisplatin-resistant line, 24 hours drug exposure, 3 day recovery, mean±SEM of triplicate plates; for RF2: rapport of the IC50 between A2780 and MCP1, the lower RF the better
Experimental: (§1) Compounds were tested in a growth assay with a 24 hours drug exposure and a 3 day recovery period. Cell lines used were human ovarian tumour cell line A2780 and 2 Cisplatin resistant derivatives cell lines A27080/cp70 and MCP1. IC50 is the concentration of drug required to reduce the surviving cell number to 50% of that of the control untreated cells. Results are from one experiment and are the mean±SEM of the triplicate plates.
(§2) DIP cytotoxicity was determined by a tetrazolium dye-based microtitration assay. DNA affinity measurements of DIPs were undertaken using Isothermal Titration Calorimetry (ITC).

[2] = system: human ovarian tumour cell line A2780; experiment: growth (tetrazolium dye-based microtitration) cytotoxicity assay, A2780; type: cell-based; conditions: for IC50: cisplatin-sensitive line, 24 hours drug exposure, 3 day recovery, mean±SEM of triplicate plates; for cytotoxicity (in words): overall statement across A2780, A2780/cp70 and MCP1
Experimental: as §1, §2

[3] = system: Cisplatin resistant cell line A2780/cp70; experiment: growth (tetrazolium dye-based microtitration) cytotoxicity assay, A2780/cp70; type: cell-based, human; conditions: for IC50: cisplatin-resistant line, 24 hours drug exposure, 3 day recovery, mean±SEM of triplicate plates; for RF1: rapport of the IC50 between A2780 and A2780/cp70, the lower RF the better
Experimental: as §1, §2

[4] = system: Calf DNA; experiment: DNA affinity by Isothermal Titration Calorimetry (ITC), Calf DNA; type: binding; set-up: key: *^1: No measurable binding via ITC
Experimental: as §2

[5] = system: Salmon DNA; experiment: DNA affinity by Isothermal Titration Calorimetry (ITC), Salmon DNA; type: binding; set-up: key to Ka Salmon DNA: *^1: No measurable binding via ITC
Experimental: as §2

SMILES | IC50 ([1]; Homo sapiens) | RF2 [1] | cytotoxicity on cisplatin-sensitive cell line A2780 (in words) [2] | IC50 ([2]; Homo sapiens, A2780) | cytotoxicity (in words) [2] | IC50 ([3]; Homo sapiens, A2780/CP70) | RF1 [3] | Ka Calf DNA [4] | Ka Salmon DNA [5] | DNA affinity (in words) ([5]; DNA source not given) | IC50 [1] | IC50 [2] | IC50 [3]
COC(=O)[C@@H](Cc1ccccc1)N1CC[n+]2c1c1ccccc1c1ccccc12.[Br-] [LS2-6] | 34.2 ± 4.3 µM | 1.1 | moderate cytotoxicity | 31.2 ± 4.2 µM | moderate activity; also recorded: moderate cytotoxicity in the three lines | 26.4 ± 3.3 µM | 0.9 | – | – | – | – | – | –
OCCN1CC[n+]2c1c1ccccc1c1ccccc12.[Br-] [AP6-5] | 7.8 ± 1.47 µM | 0.7 | – | 11.7 ± 1.2 µM | – | 13.7 ± 1.5 µM | 1.2 | 1.53 ± 838.9 M^−1 (10^4) | 1.84 ± 660 M^−1 (10^4) | – | – | – | –
[Br-].c1ccc2c(c1)c1[n+](c3ccccc23)CCN1C1CC1 [AP3-80] | 5.68 ± 0.86 µM | 1.1 | – | 5.07 ± 1.06 µM | – | 4.54 ± 0.7 µM | 0.9 | – | – | – | – | – | –
COC(=O)CN1CC[n+]2c1c1ccccc1c1ccccc12.[Br-] [LS1-8] | 33 ± 1.6 µM | 0.7 | – | 48.4 ± 8.5 µM | moderate activity | 54.9 ± 3.4 µM | 1.1 | – | – | – | – | – | –
COc1ccc(CN2CC[n+]3c2c2ccccc2c2cc(Br)ccc23)cc1.[Br-] [LS1-72] | 0.997 ± 0.034 µM | 1.2 | – | 0.823 ± 0.219 µM | – | 1.67 ± 0.18 µM | 2 | – | – | – | – | – | –
CCc1ccc(N2CC[n+]3c2c2ccccc2c2ccccc23)cc1.[Br-] [LS2-11] | 1.11 ± 0.16 µM | 0.7 | – | 1.54 ± 0.12 µM | – | 1.25 ± 0.14 µM | 0.8 | – | – | – | – | – | –
[Br-].[Br-].c1ccc2c(c1)c1[n+](c3ccccc23)CCN1CCN1CCN(CCN2CC[n+]3c2c2ccccc2c2ccccc23)CC1 [AP9-5] | 3.94 ± 0.32 µM | 0.2 | – | 18.3 ± 2.8 µM | – | 5.65 ± 0.2 µM | 0.3 | – | – | – | – | – | –
[Br-].c1ccc(C(CCN2CC[n+]3c2c2ccccc2c2ccccc23)c2ccccc2)cc1 [LS2-10] | 2.03 ± 0.31 µM | 1 | – | 2.06 ± 0.34 µM | – | 1.73 ± 0.12 µM | 0.8 | – | – | – | – | – | –
Br.Br.Br.O=C(CN1CC[n+]2c1c1ccccc1c1ccccc12)N1CCCN(C(=O)CN2CC[n+]3c2c2ccccc2c2ccccc23)CCCN(C(=O)CN2CC[n+]3c2c2ccccc2c2ccccc23)CCC1 [AP9-82] | 7.59 ± 0.32 µM | 0.5 | – | 15.6 ± 2.76 µM | – | 4.57 ± 0.18 µM | 0.3 | – | – | – | – | – | –
CC[n+]1c(-c2ccccc2)c2cc(N)ccc2c2ccc(N)cc21.[Br-] [EtBr, ethidium bromide, reference compound] | 0.45 ± 0.008 µM | 1.5 | – | 0.3 ± 0.039 µM | – | 0.658 ± 0.118 µM | 2.2 | 9.31 ± 3353 M^−1 (10^4) | 12.9 ± 4533 M^−1 (10^4) | – | – | – | –
COc1ccc([C@@H](C)N2CC[n+]3c2c2ccccc2c2ccccc23)cc1 [AP6-96, 1-[1-(4-Methoxy-phenyl)-ethyl]-2,3-dihydro-1H-imidazo[1,2-f]phenanthridin-4-ylium bromide] | 0.53 ± 0.04 µM | 0.5 | – | 1.03 ± 0.06 µM | – | 1.15 ± 0.07 µM | 1.1 | 4.14 ± 2685 M^−1 (10^4) | 5.17 ± 1948 M^−1 (10^4) | – | – | – | –
O=C(CN1CC[n+]2c1c1ccccc1c1ccccc12)N1CCN(C(=O)CN2CC[n+]3c2c2ccccc2c2ccccc23)CC1.[Br-].[Br-] [AP8-66] | 6.84 ± 0.89 µM | 0.6 | – | 11.7 ± 1.1 µM | – | 15.6 ± 2.1 µM | 1.3 | – | – | – | – | – | –
C[C@H](CO)N1CC[n+]2c1c1ccccc1c1ccccc12.[Br-] [LS1-52] | 4.77 ± 0.09 µM | 1.7 | – | 2.86 ± 0.37 µM | – | 8.43 ± 0.37 µM | 3 | 1.42 ± 785 M^−1 (10^4) | 1.73 ± 989.3 M^−1 (10^4) | – | – | – | –
COc1ccc(CN2CC[n+]3c2ccc2ccccc23)cc1 [AP4-44, 3-(4-Methoxy-benzyl)-2,3-dihydro-1H-imidazo[1,2-a]quinolin-10-ylium bromide] | 11 ± 1 µM | 0.4 | – | 30.9 ± 2.5 µM | much less cytotoxicity | 12.6 ± 0.6 µM | 0.4 | *^1 | *^1 | cancel any measurable DNA affinity | – | – | –
[Br-].[Br-].[Br-].c1ccc2c(c1)c[n+](CCN1CCCN(CC[n+]3cc4ccccc4c4ccccc43)CCCN(CC[n+]3cc4ccccc4c4ccccc43)CCC1)c1ccccc21 [AP4-55] | 1.13 ± 0.12 µM | 0.5 | – | 2.28 ± 0.23 µM | good cytotoxicity | 1.59 ± 0.15 µM | 0.7 | – | – | – | – | – | –
[Br-].[Br-].c1ccc2c(c1)c1[n+](c3ccccc23)CCN1CCNCCN1CC[n+]2c1c1ccccc1c1ccccc12 [LS1-81] | 25.4 ± 2.9 µM | 0.8 | – | 32.4 ± 2 µM | – | 15.1 ± 0.9 µM | 0.5 | – | – | – | – | – | –
COc1ccc(N2CC[n+]3c2c2ccccc2c2ccccc23)cc1.[Br-] [AP3-83] | 0.5 ± 0.04 µM | 0.3 | – | 1.45 ± 0.15 µM | – | 1.1 ± 0.13 µM | 0.8 | 3.46 ± 1726 M^−1 (10^4) | 3.73 ± 1827 M^−1 (10^4) | – | – | – | –
[Br-].[Br-].[Br-].c1ccc2c(c1)c1[n+](c3ccccc23)CCN1[C@H]1C[C@@H](N2CC[n+]3c2c2ccccc2c2ccccc23)C[C@@H](N2CC[n+]3c2c2ccccc2c2ccccc23)C1 [AP3-42] | 9.44 ± 0.58 µM | 1.2 | – | 8.02 ± 1.14 µM | – | 7.29 ± 0.38 µM | 0.9 | – | – | – | – | – | –
[Br-].c1ccc(CN2CC[n+]3c2c2ccccc2c2ccccc23)cc1 [AP9-45] | 1.29 ± 0.11 µM | 0.6 | – | 2.32 ± 0.33 µM | – | 2.26 ± 0.23 µM | 1.0 | – | – | – | – | – | –
COc1ccc(CN2CC[n+]3c2c2ccccc2c2ccccc23)cc1.[Br-] [AP3-56, 1-(4-Methoxy-benzyl)-2,3-dihydro-1H-imidazo[1,2-f]phenanthridinium bromide] | 1.06 ± 0.06 µM | 0.7 | – | 1.53 ± 0.09 µM | – | 1.56 ± 0.06 µM | 1.0 | – | – | – | – | – | –
[Br-].c1ccc2c(c1)c[n+](CCN1CCCCC1)c1ccccc21 [AP4-20] | 6.3 ± 0.09 µM | 0.6 | – | 9.77 ± 1.04 µM | – | 16.5 ± 0.8 µM | 1.7 | – | – | – | – | – | –
N.N.[Cl][Pt][Cl] [Cisplatin, reference compound] | – | 1.7 | – | – | – | – | 5.8 | – | – | – | 0.43 ± 0.06 µM | 0.25 ± 0.02 µM | 1.46 ± 0.04 µM
Br.Br.Br.Br.c1ccc2c(c1)c1[n+](c3ccccc23)CCN1CC[N+]12CC[N+](CCN3CC[n+]4c3c3ccccc3c3ccccc34)(CC1)CC2 [AP11-36] | 3.07 ± 0.52 µM | 1.3 | – | 2.34 ± 0.25 µM | – | 3.4 ± 0.23 µM | 1.5 | – | – | – | – | – | –
Br.Br.c1ccc2c(c1)c[n+](CCN1CCN(CC[n+]3cc4ccccc4c4ccccc43)CC1)c1ccccc21 [AP4-48] | 11.7 ± 1.51 µM | 0.6 | – | 18.4 ± 1.23 µM | – | 16.8 ± 0.54 µM | 0.9 | – | – | – | – | – | –
COc1ccc2c(c[n+](C)c3c4cc5c(cc4ccc23)OCO5)c1OC.[Cl-] [Chelerythrine, reference compound] | 2.29 ± 0.15 µM | 0.5 | – | 4.63 ± 0.52 µM | – | 1.79 ± 0.02 µM | 0.4 | – | – | – | – | – | –
